{
  "source": "patent US20240115566A1",
  "about": "“METHODS OF TREATING DISORDERS ASSOCIATED WITH CASTOR” (ST. JUDE CHILDREN'S RESEARCH HOSPITAL, INC., priority 2020, published 2024)",
  "key": {"[1]": {"tested_on": "neuronal SynCre+ Pank1,2 dKO mice", "test": "Survival, weight gain and physiology of neuronal SynCre+ Pank1,2 dKO mice on Compound 1 chow", "type": "in vivo, mouse", "conditions": "75 ppm chow", "description": "All procedures were reviewed and approved by the St. Jude Children's Research Hospital Institutional Animal Care and Use Committee. […] The mice were maintained at room temperature, humidity 50±10% and a 14/10-hour light/dark cycle. […] Water was supplied ad libitum. Mice were randomized into the treatment arms at weaning.\nNeuron-specific deletion of Pank1 and Pank2 was confirmed by PCR genotyping of brain and liver postmortem as described by Sharma et al."}, "[2]": {"test": "in vivo", "conditions": "male, BALB/c, mouse, plasma; for bioavailability: oral"}, "[3]": {"test": "Pharmacokinetic evaluation in plasma of male BALB/c mice"}, "[4]": {"tested_on": "Pcca−/−PCCA(A138T)tg/0 (PA) mice", "test": "TCA cycle intermediates in urine of PZ-3022-treated PA mice", "type": "in vivo, mouse", "conditions": "PZ-3022 therapy", "protocol": "FIGS. 6A-6B show TCA cycle intermediates in plasma and urine of treated PA mice. Urinary TCA cycle metabolites eliminated over 24 h were quantified by mass spectrometry and normalized to mouse body weight. […] Three male (blue) and three female (red) mice were used for each determination.\n(§1) Animal experiments. […] Water was supplied ad libitum.\nMetabolites in urine and plasma. Water was added to a 24-h urine sample to a final volume of 1 ml for each mouse. To 100 μl of urine or 20 μl of plasma, warfarin standard was added at a final concentration of 0.2 μM and the sample was incubated at −80° C. for 1 hour. The sample was centrifuged at 6000×g for 10 minutes to remove precipitants and the supernatant was analyzed by LC/MS/MS. […] Solvent A was 0.1% formic acid in water, and Solvent B was acetonitrile+0.1% formic acid. […] The MRMs for metabolites in either the positive or negative mode were taken from. The MRMs for the warfarin internal standard were: negative mode, 307.1/161.0; and positive mode, 309.1/163.0. […] The relative amount of metabolite was normalized to the amount of warfarin. To improve glycine detection, this metabolite was measured after derivatization with benzoyl chloride using the technology and MRMs described."}, "[5]": {"tested_on": "Pcca−/−PCCA(A138T)tg/0 (PA) mice", "test": "Short-term (3-day gavage) PZ-3022 treatment of PA mice: liver CoA pools and carnitines"}, "[6]": {"tested_on": "C3A cells", "test": "Total cellular CoA in C3A cells", "type": "cell-based, human", "conditions": "10 μM, 24 h", "protocol": "Cell culture. Human C3A (HepG2/C3A) cells (#CRL-1074) were purchased from ATCC® and maintained in DMEM supplemented with 2 mM glutamine, 10% fetal bovine serum (Atlanta Biologicals), 50 U/ml penicillin and […] streptomycin. HEK293T cells (ATCC, #CRL-3216) were used for expression of human PCCA protein standard and were maintained in DMEM plus supplements as described above. Each cell line was confirmed to be mycoplasma-free. […] DMSO alone was added to control cultures. Culture medium was aspirated off the dish, cells were quickly washed with ice-cold phosphate-buffered saline that was quickly aspirated off the dish, and cells were quickly washed again with ice-cold water that was aspirated off to remove residual saline. Ice-cold water (1 ml) was added to the culture dish, cells were scraped into the cold water and the cell suspension was transferred to a glass test tube containing 400 μl of […] KOH and 1.5 ml water for analysis of total CoA content."}, "[7]": {"tested_on": "wild-type mice", "test": "Effect of PZ-3022 chow on liver CoA, amino acids and TCA metabolites in wild-type mice", "type": "in vivo, mouse", "protocol": "FIGS. 20A-20E show liver CoASH (20A), liver C2-CoA (20B), liver C3-CoA (20C), liver C3:C2-CoA ratio (20D), and plasma and urine amino acid levels (20E). Number of mice in each group are shown in parenthesis. Amino acids were measured by mass spectrometry using warfarin as an internal standard except for glycine, which was measured as its benzoyl derivative. […] Two male (blue) and three female (red) mice were used for each determination.\nUrinary TCA cycle metabolites eliminated over 24 h were quantified by mass spectrometry and normalized to mouse body weight. […] Male (blue) and female (red) mice were used for each determination. Number of mice in each group are shown in parenthesis.\nas §1"}, "[8]": {"tested_on": "C57BL/6J mice", "test": "Liver total CoA and drug exposure in C57BL/6J mice (gavage or chow)"}, "[9]": {"tested_on": "Pcca−/−PCCA(A138T)tg/0 (PA) mice"}, "[10]": {"conditions": "24 h urine normalized to body weight"}, "[11]": {"conditions": "10 or 30 mg/kg plus 50 mg/kg pantothenate, 3 doses"}, "[12]": {"conditions": "75 ppm chow to day 70, male and female"}},
  "note": "Like-named read-outs stand apart in the source and are kept apart here.",
  "data": [
    {"smiles": "O=C(Cc1ccc(C2CC2)c(F)c1)N1CCN(c2ccc(Cl)nn2)CC1", "note": "[Compound 1]", "values": [
      {"measurement": "Growth rate, lifespan and movement dysfunction", "setting": "[1]", "value": "improvement of growth rate, lifespan, and movement dysfunction"},
      {"measurement": "Weight gain, greater than untreated dKO", "setting": "[1]; at the time of evaluation", "value": 10, "unit": "%"}
    ]},
    {"smiles": "CC(C)c1ccc(CC(=O)N2CCN(c3ccc(C#N)nn3)CC2)cc1", "note": "[PZ-2891]", "values": [
      {"measurement": "Cmax", "setting": "[2]; iv, 2 mg/kg", "value": 2810, "unit": "ng/mL"},
      {"measurement": "bioavailability", "setting": "[2]; 10 mg/kg", "value": 46, "unit": "%"},
      {"measurement": "AUCinf", "setting": "[3]; i.v. 2 mg/kg", "value": 611.5, "unit": "ng·h/mL"},
      {"measurement": "AUClast", "setting": "[3]; i.v. 2 mg/kg", "value": 608.6, "unit": "ng·h/mL"},
      {"measurement": "CL", "setting": "[3]; i.v. 2 mg/kg", "value": 54.5, "unit": "mL/min/kg"},
      {"measurement": "T1/2", "setting": "[3]; i.v. 2 mg/kg", "value": 18, "unit": "min"},
      {"measurement": "Vss", "setting": "[3]; i.v. 2 mg/kg", "value": 0.9, "unit": "L/kg"},
      {"measurement": "AUCinf", "setting": "[3]; p.o. 10 mg/kg", "value": 1424.0, "unit": "ng·h/mL"},
      {"measurement": "AUClast", "setting": "[3]; p.o. 10 mg/kg", "value": 1397.8, "unit": "ng·h/mL"},
      {"measurement": "C0/Cmax (Cmax)", "setting": "[3]; p.o. 10 mg/kg", "value": 1886.5, "unit": "ng/mL"},
      {"measurement": "Tmax", "setting": "[3]; p.o. 10 mg/kg, 30% Captisol, male BALB/c mice, plasma", "value": 18, "unit": "min"}
    ]},
    {"smiles": "N#Cc1ccc(N2CCN(C(=O)Cc3ccc(C4CC4)cc3)CC2)nn1", "note": "[PZ-3022, 6-(4-(2-(4-cyclopropylphenyl)acetyl)piperazin-1-yl)pyridazine-3-carbonitrile]", "values": [
      {"measurement": "AUC(0-t)", "setting": "[2]; iv, 2 mg/kg", "value": 2960, "unit": "ng·h/mL"},
      {"measurement": "Cmax", "setting": "[2]; iv, 2 mg/kg", "value": 3290, "unit": "ng/mL"},
      {"measurement": "bioavailability", "setting": "[2]; 10 mg/kg", "value": 100, "unit": "%"},
      {"measurement": "AUC(0-t)", "setting": "[2]; po, 10 mg/kg", "value": 16900, "unit": "ng·h/mL"},
      {"measurement": "Reduction in urinary methylmalonate", "setting": "[4]; 24 h urine", "value": 47, "unit": "%"},
      {"measurement": "Reduction of urinary malate", "setting": "[4]; 24 h urine", "value": 80, "unit": "%"},
      {"measurement": "Urine citrate level", "setting": "[4]; [10]", "value": "significantly reduced"},
      {"measurement": "Urine malate level", "setting": "[4]; [10]", "value": "significantly reduced"},
      {"measurement": "Urine methylmalonate level", "setting": "[4]; [10]", "value": "significantly reduced"},
      {"measurement": "Urine α-ketoglutarate level", "setting": "[4]; [10]", "value": "significantly reduced"},
      {"measurement": "Liver total CoA", "setting": "[5]; 10 and 30 mg/kg, 3 doses, fluorescent derivatization", "value": "significant, dose-dependent elevation"},
      {"measurement": "Liver C2-CoA", "setting": "[5]; [11]", "value": "increased"},
      {"measurement": "Liver C3-CoA", "setting": "[5]; [11]", "value": "decreased but was not eliminated"},
      {"measurement": "Liver CoASH", "setting": "[5]; 10 or 30 mg/kg plus 50 mg/kg pantothenate, 3 doses at 24 h, 4 h after last dose", "value": "significantly elevated"},
      {"measurement": "Elevation of total cellular CoA", "setting": "[6]", "value": "just as effective at raising total CoA levels in cultured cells as PZ-2891"},
      {"measurement": "Plasma and urine TCA cycle-related metabolite levels", "setting": "[7]; treated vs untreated wild-type mice", "value": "no differences"},
      {"measurement": "Liver C3-CoA", "setting": "[7]; wild-type mice on PZ-3022 chow", "value": "not altered"},
      {"measurement": "Liver CoASH", "setting": "[7]; wild-type mice on PZ-3022 chow", "value": "increased as expected"},
      {"measurement": "Liver acetyl-CoA", "setting": "[7]; wild-type mice on PZ-3022 chow", "value": "increased as expected"},
      {"measurement": "Plasma and urine amino acids", "setting": "[7]; wild-type mice on PZ-3022 chow", "value": "not changed with the exception of histidine being lower in plasma and higher in urine"},
      {"measurement": "Elevation of hepatic total CoA", "setting": "[8]; 10 mg/kg oral gavage every 24 h for three days, 4 h after last dose", "value": "slightly more potent in elevating CoA than PZ-2891"},
      {"measurement": "Total liver CoA versus dose in chow", "setting": "[8]; 7.5, 37.5 and 75 ppm in chow with 1000 ppm pantothenate, 1 week", "value": "dose response relationship"},
      {"measurement": "Plasma and liver PZ-3022 levels versus dose in chow", "setting": "[8]; 7.5, 37.5 and 75 ppm in chow, 1 week", "value": "dose-dependent increase in drug"},
      {"measurement": "Hepatic CoA levels at 24 h", "setting": "[8]; gavage", "value": "returned to the pre-dose level"},
      {"measurement": "Time at which elevation of liver CoA begins after administration", "setting": "[8]; gavage, C57BL/6J male mice", "value": 2, "unit": "h"},
      {"measurement": "Time up to which elevation of liver CoA is maintained", "setting": "[8]; gavage, C57BL/6J male mice", "value": "up to 8 h"},
      {"measurement": "Circulating PZ-3022 at 24 h", "setting": "[8]; gavage, plasma", "value": "not detected"},
      {"measurement": "Parent drug levels in plasma and liver", "setting": "[8]; same oral dosage, 75 ppm chow for 4 weeks", "value": "higher levels of circulating (FIG. 16C) and liver (FIG. 16D) PZ-3022 compared to PZ-2891"},
      {"measurement": "Liver CoASH", "setting": "[9]; 75 ppm PZ-3022 + 1000 ppm pantothenate chow from day 21 to day 70, males and females", "value": "restored liver CoASH levels to wild-type"},
      {"measurement": "Hepatic C3-CoA", "setting": "[9]; 75 ppm chow to day 70", "value": "significant drop"},
      {"measurement": "Liver C2-CoA", "setting": "[9]; 75 ppm chow to day 70", "value": "restored to wild-type levels"},
      {"measurement": "Liver C2-carnitine", "setting": "[9]; 75 ppm chow to day 70", "value": "did not exhibit significant increases"},
      {"measurement": "Liver carnitine", "setting": "[9]; 75 ppm chow to day 70", "value": "did not exhibit significant increases"},
      {"measurement": "Plasma C3-carnitine", "setting": "[9]; 75 ppm chow to day 70, female mice", "value": "reduced"},
      {"measurement": "Liver C3-carnitine", "setting": "[9]; [12]", "value": "significantly decreased"},
      {"measurement": "Plasma C2-carnitine", "setting": "[9]; [12]", "value": "significantly increased"},
      {"measurement": "Plasma carnitine", "setting": "[9]; [12]", "value": "increase"},
      {"measurement": "Plasma C3-carnitine", "setting": "[9]; 75 ppm chow to day 70, male mice", "value": "the same in the treated and untreated male mice"},
      {"measurement": "Heart total CoA", "setting": "[9]; PZ-3022 chow until 70 days of age", "value": "increased"},
      {"measurement": "Reduction in C3-CoA in liver", "setting": "[9]; PZ-3022 therapy", "value": 50, "unit": "%"}
    ]}
  ]
}
